Test results taken from the NIST ThermoML archive (doi:10.1016/j.tca.2013.08.016).

Assays:
[1] = refractive index (Na D-line) (dimensionless); φn = volume fraction of the nth substance listed; conditions: 101 kPa, Liquid, Standard Abbe refractometry
[2] = refractive index (Na D-line) (dimensionless); conditions: 101.33 kPa, Liquid, Standard Abbe refractometry

CCCC[n+]1ccccc1.F[B-](F)(F)F [1-butylpyridinium tetrafluoroborate] + CCO
[1]
Conditions	refractive index
303.15 K, φ1 = 0.0806	1.36595
303.15 K, φ1 = 0.1412	1.37218
303.15 K, φ1 = 0.2622	1.3839
303.15 K, φ1 = 0.3554	1.39236
303.15 K, φ1 = 0.4323	1.39905
303.15 K, φ1 = 0.561	1.40993
303.15 K, φ1 = 0.6685	1.41861
303.15 K, φ1 = 0.7512	1.42527
303.15 K, φ1 = 0.8213	1.43076
303.15 K, φ1 = 0.8742	1.43497
303.15 K, φ1 = 0.9217	1.43861
303.15 K, φ1 = 0.9612	1.44158
303.15 K, φ1 = 1	1.44454
313.15 K, φ1 = 0.0802	1.36207
313.15 K, φ1 = 0.1405	1.36844
313.15 K, φ1 = 0.2611	1.38045
313.15 K, φ1 = 0.3541	1.389
313.15 K, φ1 = 0.4308	1.39575
313.15 K, φ1 = 0.5595	1.40676
313.15 K, φ1 = 0.6672	1.4156
313.15 K, φ1 = 0.7501	1.42236
313.15 K, φ1 = 0.8205	1.42796
313.15 K, φ1 = 0.8736	1.43225
313.15 K, φ1 = 0.9213	1.43596
313.15 K, φ1 = 0.961	1.43898
313.15 K, φ1 = 1	1.4419
323.15 K, φ1 = 0.0798	1.35794
323.15 K, φ1 = 0.1398	1.3646
323.15 K, φ1 = 0.26	1.37704
323.15 K, φ1 = 0.3528	1.38573
323.15 K, φ1 = 0.4294	1.39254
323.15 K, φ1 = 0.5581	1.40354
323.15 K, φ1 = 0.6659	1.41255
323.15 K, φ1 = 0.749	1.41938
323.15 K, φ1 = 0.8196	1.42508
323.15 K, φ1 = 0.8729	1.42947
323.15 K, φ1 = 0.9209	1.43328
323.15 K, φ1 = 0.9607	1.43633
323.15 K, φ1 = 1	1.43924

CCCC[n+]1ccccc1.F[B-](F)(F)F [1-butylpyridinium tetrafluoroborate] + CO
[1]
Conditions	refractive index
293.15 K, φ1 = 0.0747	1.33926
293.15 K, φ1 = 0.1041	1.34327
293.15 K, φ1 = 0.2013	1.35648
293.15 K, φ1 = 0.3315	1.37286
293.15 K, φ1 = 0.4125	1.38271
293.15 K, φ1 = 0.5222	1.39563
293.15 K, φ1 = 0.6527	1.41047
293.15 K, φ1 = 0.7475	1.42106
293.15 K, φ1 = 0.8152	1.42843
293.15 K, φ1 = 0.8666	1.43377
293.15 K, φ1 = 0.9113	1.43844
293.15 K, φ1 = 0.9687	1.44425
293.15 K, φ1 = 1	1.44719
303.15 K, φ1 = 0.0742	1.3354
303.15 K, φ1 = 0.1035	1.33949
303.15 K, φ1 = 0.2002	1.35293
303.15 K, φ1 = 0.3301	1.36955
303.15 K, φ1 = 0.411	1.37949
303.15 K, φ1 = 0.5206	1.39258
303.15 K, φ1 = 0.6513	1.40757
303.15 K, φ1 = 0.7463	1.41824
303.15 K, φ1 = 0.8142	1.42561
303.15 K, φ1 = 0.8658	1.43105
303.15 K, φ1 = 0.9108	1.43576
303.15 K, φ1 = 0.9685	1.4416
303.15 K, φ1 = 1	1.44454
313.15 K, φ1 = 0.0737	1.33144
313.15 K, φ1 = 0.1028	1.33587
313.15 K, φ1 = 0.1991	1.34941
313.15 K, φ1 = 0.3286	1.36646
313.15 K, φ1 = 0.4096	1.3765
313.15 K, φ1 = 0.5189	1.38958
313.15 K, φ1 = 0.6498	1.40471
313.15 K, φ1 = 0.745	1.41542
313.15 K, φ1 = 0.8132	1.42273
313.15 K, φ1 = 0.865	1.42832
313.15 K, φ1 = 0.9103	1.433
313.15 K, φ1 = 0.9683	1.43897
313.15 K, φ1 = 1	1.4419
323.15 K, φ1 = 0.0732	1.32837
323.15 K, φ1 = 0.1022	1.33278
323.15 K, φ1 = 0.1981	1.3469
323.15 K, φ1 = 0.3271	1.3641
323.15 K, φ1 = 0.408	1.37436
323.15 K, φ1 = 0.5172	1.38733
323.15 K, φ1 = 0.6482	1.40238
323.15 K, φ1 = 0.7438	1.41283
323.15 K, φ1 = 0.8122	1.42002
323.15 K, φ1 = 0.8642	1.42546
323.15 K, φ1 = 0.9097	1.43029
323.15 K, φ1 = 0.9681	1.43614
323.15 K, φ1 = 1	1.43924

CCO [ethanol]
[2]
Conditions	refractive index
293.15 K	1.36144
303.15 K	1.35702
313.15 K	1.3527
323.15 K	1.34837

CCO [ethanol] + CCCC[n+]1ccc(C)cc1.F[B-](F)(F)F
[1], φ2 = 0
Conditions	refractive index
293.15 K	1.36144
303.15 K	1.35702
313.15 K	1.3527
323.15 K	1.34837

CCO [ethanol] + CCCC[n+]1cccc(C)c1.F[B-](F)(F)F
[1], φ2 = 0
Conditions	refractive index
293.15 K	1.36144
303.15 K	1.35702
313.15 K	1.3527
323.15 K	1.34837

CCO [ethanol] + CCCC[n+]1ccccc1.F[B-](F)(F)F
[1], φ2 = 0
Conditions	refractive index
303.15 K	1.35702
313.15 K	1.3527
323.15 K	1.34837

CO [methanol]
[2]
Conditions	refractive index
293.15 K	1.32843
303.15 K	1.32433
313.15 K	1.32015
323.15 K	1.3167

CO [methanol] + CCCC[n+]1ccc(C)cc1.F[B-](F)(F)F
[1], φ2 = 0
Conditions	refractive index
293.15 K	1.32843
303.15 K	1.32433
313.15 K	1.32015
323.15 K	1.3167

CO [methanol] + CCCC[n+]1cccc(C)c1.F[B-](F)(F)F
[1], φ2 = 0
Conditions	refractive index
293.15 K	1.32843
303.15 K	1.32433
313.15 K	1.32015
323.15 K	1.3167

CO [methanol] + CCCC[n+]1ccccc1.F[B-](F)(F)F
[1], φ2 = 0
Conditions	refractive index
293.15 K	1.32843
303.15 K	1.32433
313.15 K	1.32015
323.15 K	1.3167
